Measurements published in patent publication US11147272B2, “Pyridone compounds and agricultural and horticultural fungicides comprising the same as active ingredients” (MITSUI CHEMICALS AGRO, INC., priority 2017, dated 2021).

Experiments:
[1] = test system: Colletotrichum orbiculare; assay: Test Example H: Anthracnose on cucumber; conditions: for Test H control value: 6 to 10 days after inoculation; for Test H control value class: Anthracnose on cucumber (Sagami Hanjiro), 2.5 ml/pot, assessed 6 to 10 days after inoculation
Alternaia brassicicola = assay: Test Example C: Alternaria sooty spot on cabbage; type: in vivo
Text: Seeds of a test plant (cabbage variety: Shikidori) were planted and cultivated until the cotyledons extended.
<Control Value> Control value=100{1−(n/3)}

Phytophthora infestans = assay: whole plant or invertebrate; type: in vivo; conditions: for Test F control value class: class of control value
Puccinia recondita = assay: Test Example E: Brown rust on wheat; type: in vivo
Botrytis cinerea = assay: Test Example B: Gray mold on tomato; conditions: for Test B control value class: class of control value
Magnaporthe grisea = assay: whole plant or invertebrate; type: in vivo; conditions: for Test A control value class: class of control value
[2] = test system: Blumeria graminis f. sp. hordei; assay: Test Example D: Powdery mildew on barley; conditions: for Test D control value class: class of control value
Procedure: Seeds of a test plant (barley variety: Akashinriki) were planted and cultivated until the first leaves appeared. In the test, the inventive compounds were dissolved into dimethyl sulfoxide-methanol mixture solution (volume ratio: 9/1), and the resultant solutions were diluted with well water to a concentration of 250 ppm to obtain the drug solutions. The drug solutions were sprayed to the test plant (2.5 ml/pot). After the drug solutions dried, conidia of Blumeria graminis f. sp. hordei were inoculated to the plant by shaking off. The degrees of disease development were investigated 6 to 10 days after the inoculation, and the effectiveness of the drug solutions was evaluated.
In Test Examples described above, the degrees of disease development were evaluated in increments of 0.05 from 0 (as no incidence of disease) to 3 (as the degree of disease development in an untreated plant group). Further, control values were calculated using the following equation based on the degree of disease development.
n=Degree of disease development in each treated group

Plasmopara viticola = assay: Test Example G: Downy mildew on vine; conditions: for Test G control value: 7 to 10 days after inoculation; for Test G control value class: Downy mildew on vine (Neomuscat), 2.5 ml/pot, assessed 7 to 10 days after inoculation
[3] = 250 ppm drug solution sprayed (2.5 ml/pot), cucumber Sagami Hanjiro
[4] = 250 ppm drug solution sprayed on test plant
[5] = 250 ppm drug solution sprayed (2.5 ml/pot), grape Neomuscat
[6] = Alternaria sooty spot on cabbage, class of control value
[7] = Brown rust on wheat, class of control value
[8] = Anthracnose on cucumber, 250 ppm spray
[9] = Alternaria sooty spot on cabbage, control value class
[10] = Late blight on tomato, control value class
[11] = Brown rust on wheat, control value class
[12] = Gray mold on tomato, control value class
[13] = Blast on rice, control value class
[14] = Powdery mildew on barley, control value class
[15] = Downy mildew on vine, 250 ppm spray

SMILES	Test H control value [1, 8]	Test C control value (Alternaia brassicicola; [9])	Test F control value (Phytophthora infestans; [10])	Test E control value (Puccinia recondita; [11])	Test B control value (Botrytis cinerea; [12])	Test A control value (Magnaporthe grisea; [13])	Test D control value [2, 14]	Test G control value (Plasmopara viticola; [15])	further results
CCCc1cc(Br)c(=O)n(C)c1-c1ccc(OC)cc1Br [compound 418]									Test H control value [1, 3]: H (more than 50% control value); Test C control value (Alternaia brassicicola; [4]): H (more than 50% control value); Test F control value (Phytophthora infestans; [4]): H (more than 50% control value); Test E control value (Puccinia recondita; [4]): H (more than 50% control value); Test B control value (Botrytis cinerea; [4]): H (more than 50% control value); Test A control value (Magnaporthe grisea; [4]): L (50% or less control value); Test D control value [2, 4]: L (50% or less control value); Test G control value (Plasmopara viticola; [5]): L (50% or less control value)
CCn1c(-c2c(F)cc(F)cc2F)c(CC(C)C)ccc1=O [compound 38]									Test H control value class ([1]; 250 ppm spray): L (50% or less control value); Test C control value class (Alternaia brassicicola; [6]): L (50% or less control value); Test F control value class (Phytophthora infestans; Late blight on tomato): L (50% or less control value); Test E control value class (Puccinia recondita; [7]): H (more than 50% control value); Test B control value class (Botrytis cinerea; Gray mold on tomato): H (more than 50% control value); Test A control value class (Magnaporthe grisea; Blast on rice): H (more than 50% control value); Test D control value class ([2]; Powdery mildew on barley): H (more than 50% control value); Test G control value class (Plasmopara viticola; 250 ppm spray): L (50% or less control value)
CCn1c(-c2c(F)cc(F)cc2F)c(C(C)(CC)OC)cc(Br)c1=O (centres unmarked) [compound 483]									Test H control value [1, 3]: H (more than 50% control value); Test C control value (Alternaia brassicicola; [4]): H (more than 50% control value); Test F control value (Phytophthora infestans; [4]): L (50% or less control value); Test E control value (Puccinia recondita; [4]): H (more than 50% control value); Test B control value (Botrytis cinerea; [4]): H (more than 50% control value); Test A control value (Magnaporthe grisea; [4]): H (more than 50% control value); Test D control value [2, 4]: H (more than 50% control value); Test G control value (Plasmopara viticola; [5]): H (more than 50% control value)
CCn1c(-c2ccc(C#N)cc2)c(C=O)cc(Cl)c1=O [compound 288]	L (50% or less control value)	H (more than 50% control value)	L (50% or less control value)	L (50% or less control value)	L (50% or less control value)	L (50% or less control value)	L (50% or less control value)	L (50% or less control value)	
CCn1c(-c2ccc(F)cc2Cl)c(C=C(Br)Br)cc(Cl)c1=O [compound 301]	H (more than 50% control value)	H (more than 50% control value)	L (50% or less control value)	H (more than 50% control value)	H (more than 50% control value)	H (more than 50% control value)	H (more than 50% control value)	L (50% or less control value)	
CCn1c(-c2ccc(F)cc2Cl)c(CC(C)C)ccc1=O [Compound No. 98, 6-(2-chloro-4-fluorophenyl)-1-ethyl-5-isobutylpyridin-2(1H)-one]									pest or weed control at 250 ppm ([1]; Colletotrichum orbiculare, in Cucumis sativus, topical, read-out: Test H control value class): < 50%; pest or weed control at 250 µg/mL (Alternaia brassicicola; Brassica oleracea, topical, Alternaria sooty spot on cabbage, class of control value, read-out: Test C control value class): > 50%; pest or weed control at 250 µg/mL (Phytophthora infestans; Phytophthora infestans, in Solanum lycopersicum, topical, read-out: Test F control value class): < 50%; pest or weed control at 250 µg/mL (Puccinia recondita; Puccinia recondita, topical, Brown rust on wheat, class of control value, read-out: Test E control value class): > 50%; pest or weed control at 250 µg/mL (Botrytis cinerea; Botrytis cinerea, in Solanum lycopersicum, topical, read-out: Test B control value class): > 50%; pest or weed control at 250 µg/mL (Magnaporthe grisea; Pyricularia oryzae, in Oryza sativa, read-out: Test A control value class): > 50%; pest or weed control at 250 µg/mL ([2]; Blumeria graminis, in Hordeum vulgare, topical, read-out: Test D control value class): > 50%; pest or weed control at 250 ppm (Plasmopara viticola; Plasmopara viticola, topical, read-out: Test G control value class): < 50%
CCC1=C(c2ccc(F)cc2Cl)N(C)C(=O)CC1 [compound 312]	L (50% or less control value)	H (more than 50% control value)	L (50% or less control value)	L (50% or less control value)	L (50% or less control value)	L (50% or less control value)	L (50% or less control value)	L (50% or less control value)	
CCn1c(-c2ccc(F)cc2)c(C(C)(F)C(C)C)cc(Cl)c1=O (centres unmarked) [compound 217]	H (more than 50% control value)	H (more than 50% control value)	L (50% or less control value)	H (more than 50% control value)	H (more than 50% control value)	H (more than 50% control value)	H (more than 50% control value)	L (50% or less control value)	
CCn1c(-c2ccc(Br)cc2)c(CC(C)C)cc(Br)c1=O [compound 178]									Test H control value class ([1]; 250 ppm spray): L (50% or less control value); Test C control value class (Alternaia brassicicola; [6]): H (more than 50% control value); Test F control value class (Phytophthora infestans; Late blight on tomato): L (50% or less control value); Test E control value class (Puccinia recondita; [7]): H (more than 50% control value); Test B control value class (Botrytis cinerea; Gray mold on tomato): H (more than 50% control value); Test A control value class (Magnaporthe grisea; Blast on rice): L (50% or less control value); Test D control value class ([2]; Powdery mildew on barley): L (50% or less control value); Test G control value class (Plasmopara viticola; 250 ppm spray): L (50% or less control value)
CCn1c(-c2ccc(F)cc2Br)c(CC(C)C)cc(Br)c1=O [compound 201]	H (more than 50% control value)	H (more than 50% control value)	L (50% or less control value)	H (more than 50% control value)	H (more than 50% control value)	H (more than 50% control value)	H (more than 50% control value)	H (more than 50% control value)	
CC(C)Cc1cc(Br)c(=O)n(CC(F)F)c1-c1c(F)cc(F)cc1F [compound 305]	H (more than 50% control value)	H (more than 50% control value)	L (50% or less control value)	H (more than 50% control value)	H (more than 50% control value)	H (more than 50% control value)	H (more than 50% control value)	L (50% or less control value)	
C#CC(=O)c1cc(Cl)c(=O)n(CC)c1-c1c(F)cc(F)cc1F [compound 284]	H (more than 50% control value)	H (more than 50% control value)	H (more than 50% control value)	H (more than 50% control value)	H (more than 50% control value)	L (50% or less control value)	H (more than 50% control value)	H (more than 50% control value)	
CCn1c(-c2c(F)cccc2F)c(COC(C)C)cc(Cl)c1=O [compound 57]									Test H control value class ([1]; 250 ppm spray): H (more than 50% control value); Test C control value class (Alternaia brassicicola; [6]): H (more than 50% control value); Test F control value class (Phytophthora infestans; Late blight on tomato): L (50% or less control value); Test E control value class (Puccinia recondita; [7]): H (more than 50% control value); Test B control value class (Botrytis cinerea; Gray mold on tomato): H (more than 50% control value); Test A control value class (Magnaporthe grisea; Blast on rice): L (50% or less control value); Test D control value class ([2]; Powdery mildew on barley): H (more than 50% control value); Test G control value class (Plasmopara viticola; 250 ppm spray): L (50% or less control value)
CCn1c(-c2ccc(OC)cc2)c(CC(C)C)cc(Br)c1=O [compound 196]	H (more than 50% control value)	H (more than 50% control value)	L (50% or less control value)	H (more than 50% control value)	H (more than 50% control value)	H (more than 50% control value)	L (50% or less control value)	L (50% or less control value)	
CCn1c(-c2c(F)cc(OC)cc2F)c(CN(OC)C(=O)OC)cc(Cl)c1=O [compound 131]									Test H control value class ([1]; 250 ppm spray): H (more than 50% control value); Test C control value class (Alternaia brassicicola; [6]): H (more than 50% control value); Test F control value class (Phytophthora infestans; Late blight on tomato): L (50% or less control value); Test E control value class (Puccinia recondita; [7]): H (more than 50% control value); Test B control value class (Botrytis cinerea; Gray mold on tomato): H (more than 50% control value); Test A control value class (Magnaporthe grisea; Blast on rice): H (more than 50% control value); Test D control value class ([2]; Powdery mildew on barley): H (more than 50% control value); Test G control value class (Plasmopara viticola; 250 ppm spray): H (more than 50% control value)
CCC1=C(c2ccc(F)cc2Br)N(CC)C(=O)CC1 [compound 338]	L (50% or less control value)	H (more than 50% control value)	L (50% or less control value)	L (50% or less control value)	L (50% or less control value)	L (50% or less control value)	L (50% or less control value)	L (50% or less control value)	
